Assay results as given in US20200361779A1, “COMPOSITION INCLUDING I2SCN- IONS AND/OR I(SCN)2- IONS” (priority 2015, published 2020).
“Also recorded” adds a separate entry of the source.

Experiment: Degradation of the ions in the concomitant presence of LP (NMR signal at 49 ppm)
Type: physicochemical
Conditions: for signal at 49 ppm / wanted ions in concomitant presence of LP: after 48 h
Description: During the production of the wanted ions, if one keeps the enzyme in the mixture, one observes a gradual loss of the wanted ions, and, after 48 h, a total loss of the wanted ions due to enzymatic oxidation of the wanted ions, as illustrated in FIG. 19 in which one observes a decrease in the intensity of the signal as a function of the time of presence of the enzyme in the matrix (solution).

For I2SCN^− and/or I(SCN)2^− ions, the “signal at 49 ppm in concomitant presence of LP” value (3 h of incubation) was “pronounced decrease of the signal”, the “signal at 49 ppm in concomitant presence of LP” value (after 1 h) was “slight decrease” and the “signal at 49 ppm / wanted ions in concomitant presence of LP” value was “total disappearance of the signal; also recorded: complete disappearance”. For the same substance, the “signal at 49 ppm / wanted ions in concomitant presence of LP” value (listed as wanted ions) was “total loss”.
